Consider 23 compounds from patent US11420958B2, “Aryl and heteroaryl substituted indole compounds” (BRISTOL-MYERS SQUIBB COMPANY, priority 2017, dated 2022).

Holding throughout (type): cell-based
One test deals with human TLR7 (Homo sapiens (Human), UniProt Q9NYK1). Nature of the test: TLR7 inhibition reporter assay (HEK-Blue, SEAP). Particulars: HEK-Blue cells overexpressing human TLR7, gardiquimod 7.5 μM stimulation. The procedure, abridged:
(§1)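 After 30 min room-temperature pre-incubation with compound (0.05 nM–50 μM), reporter HEK-Blue lines were activated by ODN2006 5 nM for TLR9, R848 15.9 μM for TLR8 or gardiquimod 7.5 μM for TLR7. SEAP detected after 22 h, 37 °C; inhibition scaled between agonist+DMSO wells and known-inhibitor control.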
(Reporter assays use an easily measured gene product as a stand-in for the process of interest.)

Another test concerns the target human TLR8 (Homo sapiens (Human), UniProt Q9NR97). Nature of the test: TLR8 inhibition reporter assay (HEK-Blue, SEAP). Particulars: HEK-Blue cells overexpressing human TLR8, R848 15.9 μM stimulation. In a few lines:
as §1

The next test concerns the target human TLR9 (Homo sapiens (Human), UniProt Q9NR96). Kind of test: TLR9 inhibition reporter assay (HEK-Blue, SEAP). The settings on record: HEK-Blue cells overexpressing human TLR9, ODN2006 5 nM stimulation. In a few lines: as §1

human TLR7, sequence (Q9NYK1 27-1049): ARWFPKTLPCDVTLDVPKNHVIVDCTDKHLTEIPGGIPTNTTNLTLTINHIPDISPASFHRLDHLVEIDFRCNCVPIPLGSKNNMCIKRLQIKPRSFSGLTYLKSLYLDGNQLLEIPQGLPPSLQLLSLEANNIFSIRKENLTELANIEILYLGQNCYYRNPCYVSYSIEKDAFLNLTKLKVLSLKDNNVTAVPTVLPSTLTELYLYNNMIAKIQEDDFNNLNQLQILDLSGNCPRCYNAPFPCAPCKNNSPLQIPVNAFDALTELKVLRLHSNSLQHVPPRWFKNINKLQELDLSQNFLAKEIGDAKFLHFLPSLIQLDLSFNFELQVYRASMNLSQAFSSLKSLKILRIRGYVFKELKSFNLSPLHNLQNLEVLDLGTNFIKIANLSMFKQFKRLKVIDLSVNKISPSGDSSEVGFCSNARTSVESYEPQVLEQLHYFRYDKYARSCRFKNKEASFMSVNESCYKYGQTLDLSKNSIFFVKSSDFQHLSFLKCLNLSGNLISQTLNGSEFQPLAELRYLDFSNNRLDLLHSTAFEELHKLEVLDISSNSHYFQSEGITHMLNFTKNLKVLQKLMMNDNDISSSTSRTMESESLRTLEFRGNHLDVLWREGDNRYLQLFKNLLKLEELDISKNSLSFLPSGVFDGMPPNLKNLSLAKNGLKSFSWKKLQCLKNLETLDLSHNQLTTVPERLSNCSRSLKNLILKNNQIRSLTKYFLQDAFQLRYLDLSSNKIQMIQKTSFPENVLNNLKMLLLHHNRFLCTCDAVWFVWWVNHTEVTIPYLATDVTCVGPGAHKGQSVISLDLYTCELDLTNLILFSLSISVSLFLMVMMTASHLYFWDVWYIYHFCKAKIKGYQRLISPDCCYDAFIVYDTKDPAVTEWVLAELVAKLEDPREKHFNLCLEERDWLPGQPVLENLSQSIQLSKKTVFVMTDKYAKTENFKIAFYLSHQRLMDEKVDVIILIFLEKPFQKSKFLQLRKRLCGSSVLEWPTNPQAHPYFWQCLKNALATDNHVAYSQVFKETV
human TLR9, sequence (Q9NR96 26-1032): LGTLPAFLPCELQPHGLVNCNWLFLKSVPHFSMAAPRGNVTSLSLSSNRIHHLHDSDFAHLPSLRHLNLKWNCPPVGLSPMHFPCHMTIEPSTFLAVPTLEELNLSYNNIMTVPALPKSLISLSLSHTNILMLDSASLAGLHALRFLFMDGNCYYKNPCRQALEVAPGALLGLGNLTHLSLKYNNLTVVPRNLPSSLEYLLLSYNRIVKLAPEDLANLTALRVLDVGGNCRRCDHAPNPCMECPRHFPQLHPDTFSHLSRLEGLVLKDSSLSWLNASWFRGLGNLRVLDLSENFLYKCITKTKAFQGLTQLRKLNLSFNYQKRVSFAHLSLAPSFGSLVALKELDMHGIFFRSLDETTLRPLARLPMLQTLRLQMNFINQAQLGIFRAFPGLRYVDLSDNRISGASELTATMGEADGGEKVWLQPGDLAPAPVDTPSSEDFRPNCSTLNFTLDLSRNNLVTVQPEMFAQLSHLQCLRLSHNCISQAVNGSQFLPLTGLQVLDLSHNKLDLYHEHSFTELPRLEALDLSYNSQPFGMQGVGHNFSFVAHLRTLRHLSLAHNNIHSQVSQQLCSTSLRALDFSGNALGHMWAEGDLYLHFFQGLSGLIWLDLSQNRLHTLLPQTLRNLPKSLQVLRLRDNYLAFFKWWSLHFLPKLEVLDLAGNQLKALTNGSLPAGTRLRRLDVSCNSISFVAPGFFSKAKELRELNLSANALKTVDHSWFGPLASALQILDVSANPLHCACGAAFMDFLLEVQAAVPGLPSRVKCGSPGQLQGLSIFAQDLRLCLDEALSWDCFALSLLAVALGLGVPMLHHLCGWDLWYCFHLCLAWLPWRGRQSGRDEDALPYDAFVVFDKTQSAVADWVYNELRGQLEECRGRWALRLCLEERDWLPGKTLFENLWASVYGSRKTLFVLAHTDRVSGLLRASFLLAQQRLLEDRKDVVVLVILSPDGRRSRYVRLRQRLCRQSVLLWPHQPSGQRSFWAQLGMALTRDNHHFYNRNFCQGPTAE
human TLR8, sequence (Q9NR97 27-1041): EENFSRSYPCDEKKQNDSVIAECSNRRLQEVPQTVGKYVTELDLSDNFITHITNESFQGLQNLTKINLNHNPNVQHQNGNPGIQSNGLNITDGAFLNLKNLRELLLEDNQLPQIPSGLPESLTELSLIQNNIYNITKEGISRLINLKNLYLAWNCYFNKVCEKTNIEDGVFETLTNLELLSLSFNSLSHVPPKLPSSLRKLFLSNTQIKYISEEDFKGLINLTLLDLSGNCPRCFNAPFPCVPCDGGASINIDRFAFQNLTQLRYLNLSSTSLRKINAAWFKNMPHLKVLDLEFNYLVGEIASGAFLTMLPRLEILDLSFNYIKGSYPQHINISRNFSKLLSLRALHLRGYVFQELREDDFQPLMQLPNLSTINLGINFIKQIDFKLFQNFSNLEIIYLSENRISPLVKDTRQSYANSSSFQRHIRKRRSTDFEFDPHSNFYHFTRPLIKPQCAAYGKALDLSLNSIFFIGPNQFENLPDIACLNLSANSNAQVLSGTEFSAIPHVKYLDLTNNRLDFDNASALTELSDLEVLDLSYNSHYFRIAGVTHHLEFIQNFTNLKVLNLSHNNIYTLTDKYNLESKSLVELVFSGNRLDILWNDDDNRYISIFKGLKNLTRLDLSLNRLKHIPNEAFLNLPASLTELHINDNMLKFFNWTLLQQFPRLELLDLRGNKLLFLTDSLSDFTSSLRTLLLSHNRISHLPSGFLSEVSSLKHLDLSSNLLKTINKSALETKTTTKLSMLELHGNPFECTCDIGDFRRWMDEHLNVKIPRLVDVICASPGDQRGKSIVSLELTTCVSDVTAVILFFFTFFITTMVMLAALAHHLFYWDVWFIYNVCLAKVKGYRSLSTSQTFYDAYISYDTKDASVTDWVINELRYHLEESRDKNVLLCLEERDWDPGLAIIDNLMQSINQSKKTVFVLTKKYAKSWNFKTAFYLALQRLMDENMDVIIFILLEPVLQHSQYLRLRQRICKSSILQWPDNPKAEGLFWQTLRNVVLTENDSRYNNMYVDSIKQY

A word on the IC50: it is the concentration needed to halve the response being measured. For `Cc1cc(-c2[nH]c3ccc(-c4nnc(CCCN(C)C)o4)cc3c2C(C)C)ccn1` [Example 77, 3-(5-(3-isopropyl-2-(2-methylpyridin-4-yl)-1H-indol-5-yl)-1,3,4-oxadiazol-2-yl)-N,N-dimethylpropan-1-amine], the half-maximal inhibitory concentration (IC50) came to 29 nM against human TLR7, 1.7 nM on human TLR8 and 695 nM at human TLR9.

For the compound `Cc1cc(-c2[nH]c3ccc(-c4nnc(C5CCC(C(F)(F)F)CC5)o4)cc3c2C(C)C)ccn1` (stereo not drawn) [Example 78, 2-(3-isopropyl-2-(2-methylpyridin-4-yl)-1H-indol-5-yl)-5-(4-(trifluoromethyl)cyclohexyl)-1,3,4-oxadiazole], the IC50 at human TLR7 was 2700 nM; on human TLR8 it was 535 nM; against human TLR9, over 50000 nM.

Consider `Cc1cc(-c2[nH]c3ccc(-c4nnc(CN5CCN(C)CC5)o4)cc3c2C(C)C)ccn1` [Example 79, 2-(3-isopropyl-2-(2-methylpyridin-4-yl)-1H-indol-5-yl)-5-((4-methylpiperazin-1-yl)methyl)-1,3,4-oxadiazole], for which the IC50 was found to be 65 nM against human TLR7, 7.5 nM at human TLR8 and 1250 nM against human TLR9.

In the case of `Cc1cc(-c2[nH]c3ccc(-c4nnc([C@@H]5CCCNC5)o4)cc3c2C(C)C)ccn1` [Example 80, (R)-2-(3-isopropyl-2-(2-methylpyridin-4-yl)-1H-indol-5-yl)-5-(piperidin-3-yl)-1,3,4-oxadiazole], the figures for the IC50 against human TLR7, against human TLR8 and at human TLR9 were 19 nM, 1.2 nM and 592 nM, respectively.

Turning to `Cc1cc(-c2[nH]c3ccc(-c4nnc([C@@H]5Cc6ccccc6CN5)o4)cc3c2C(C)C)ccn1` [Example 81, (S)-2-(3-isopropyl-2-(2-methylpyridin-4-yl)-1H-indol-5-yl)-5-(1,2,3,4-tetrahydroisoquinolin-3-yl)-1,3,4-oxadiazole], the IC50 against human TLR7 is 774 nM; on human TLR8, 73 nM; at human TLR9 it was over 50000 nM.

`Cc1cc(-c2[nH]c3ccc(-c4nnc([C@H]5CSCN5)o4)cc3c2C(C)C)ccn1` [Example 82, (S)-2-(3-isopropyl-2-(2-methylpyridin-4-yl)-1H-indol-5-yl)-5-(thiazolidin-4-yl)-1,3,4-oxadiazole]: the IC50 was 596 nM against human TLR7, 96 nM at human TLR8 and over 50000 nM against human TLR9.

`COc1ccc(-c2[nH]c3ccc(-c4nnc(C5CCN(CC(=O)N(C)C)CC5)o4)cc3c2CC(F)(F)F)cc1OC` [Example 83, 2-(4-(5-(2-(3,4-dimethoxyphenyl)-3-(2,2,2-trifluoroethyl)-1H-indol-5-yl)-1,3,4-oxadiazol-2-yl)piperidin-1-yl)-N,N-dimethylacetamide]: the IC50 against human TLR7 was 158 nM; at human TLR8, 40 nM; on human TLR9, 2550 nM.

For the compound `CC(C)c1c(-c2ccnc3[nH]ncc23)[nH]c2ccc(-c3nnc(C(=O)NC4CCN(C(C)C)CC4)o3)cc12` [Example 84, 5-(3-isopropyl-2-(1H-pyrazolo[3,4-b]pyridin-4-yl)-1H-indol-5-yl)-N-(1-isopropylpiperidin-4-yl)-1,3,4-oxadiazole-2-carboxamide], the figures for the IC50 against human TLR7, against human TLR8 and against human TLR9 were 87 nM, 6 nM and 235 nM, respectively.

In the case of `CC(C)c1c(-c2ccnc3[nH]ncc23)[nH]c2ccc(-c3nnc(C(=O)N4CC5CNCC5C4)o3)cc12` (stereo not drawn) [Example 85, (hexahydropyrrolo[3,4-c]pyrrol-2(1H)-yl)(5-(3-isopropyl-2-(1H-pyrazolo[3,4-b]pyridin-4-yl)-1H-indol-5-yl)-1,3,4-oxadiazol-2-yl)methanone], the figures for the IC50 against human TLR7, against human TLR8 and on human TLR9 were 328 nM, 9.2 nM and 590 nM, respectively.

For the compound `CC(C)c1c(-c2ccnc3[nH]ncc23)[nH]c2ccc(-c3nnc(C4CCN(C(=O)CN(C)C)CC4)o3)cc12` [Example 86, 2-(dimethylamino)-1-(4-(5-(3-isopropyl-2-(1H-pyrazolo[3,4-b]pyridin-4-yl)-1H-indol-5-yl)-1,3,4-oxadiazol-2-yl)piperidin-1-yl)ethan-1-one], the IC50 on human TLR7 was 85 nM; against human TLR8 it was 6.1 nM; on human TLR9, 324 nM.

As for `CC(C)c1c(-c2ccnc3[nH]ncc23)[nH]c2ccc(-c3nnc(C4CCN(CC(=O)N(C)C)CC4)o3)cc12` [Example 87, 2-(4-(5-(3-isopropyl-2-(1H-pyrazolo[3,4-b]pyridin-4-yl)-1H-indol-5-yl)-1,3,4-oxadiazol-2-yl)piperidin-1-yl)-N,N-dimethylacetamide], the results for the IC50 at human TLR7, against human TLR8 and against human TLR9 were 549 nM, 9.8 nM and 5660 nM, respectively.

In the case of `CNC(=O)CN1CCC(c2nnc(-c3ccc4[nH]c(-c5ccnc6[nH]ncc56)c(C(C)C)c4c3)o2)CC1` [Example 88, 2-(4-(5-(3-isopropyl-2-(1H-pyrazolo[3,4-b]pyridin-4-yl)-1H-indol-5-yl)-1,3,4-oxadiazol-2-yl)piperidin-1-yl)-N-methylacetamide], the IC50 on human TLR7 was 294 nM; against human TLR8, 10 nM; at human TLR9 it was 4760 nM.

For the compound `CCN(CC)C(=O)C1CCCN(C(=O)c2nnc(-c3ccc4[nH]c(-c5ccc(OC)c(OC)c5)c(C(C)C)c4c3)o2)C1` (stereo not drawn) [Example 89, 1-(5-(2-(3,4-dimethoxyphenyl)-3-isopropyl-1H-indol-5-yl)-1,3,4-oxadiazole-2-carbonyl)-N,N-diethylpiperidine-3-carboxamide], the IC50 at human TLR7 came to 1490 nM; at human TLR8 it was 217 nM; at human TLR9, 9640 nM.

On to `COc1ccc(-c2[nH]c3ccc(-c4nnc(C(=O)NCCN(C)C)o4)cc3c2C(C)C)cc1OC` [Example 90, 5-(2-(3,4-dimethoxyphenyl)-3-isopropyl-1H-indol-5-yl)-N-(2-(dimethylamino)ethyl)-1,3,4-oxadiazole-2-carboxamide], for which the half-maximal inhibitory concentration (IC50) at human TLR7 came out at 30 nM; on human TLR8 it was 4 nM; against human TLR9, 802 nM.

Consider `COc1ccc(-c2[nH]c3ccc(-c4nnc(C(=O)N5CCC(O)CC5)o4)cc3c2C(C)C)cc1OC` [Example 91, (5-(2-(3,4-dimethoxyphenyl)-3-isopropyl-1H-indol-5-yl)-1,3,4-oxadiazol-2-yl)(4-hydroxypiperidin-1-yl)methanone], for which the IC50 on human TLR7 is 348 nM; on human TLR8, 111 nM; against human TLR9 it was over 50000 nM.

Regarding `COc1ccc(-c2[nH]c3ccc(-c4nnc(C(=O)N5CCN(C(C)=O)CC5)o4)cc3c2C(C)C)cc1OC` [Example 92, 1-(4-(5-(2-(3,4-dimethoxyphenyl)-3-isopropyl-1H-indol-5-yl)-1,3,4-oxadiazole-2-carbonyl)piperazin-1-yl)ethan-1-one], the IC50 against human TLR7 stood at 561 nM; against human TLR8, 109 nM; on human TLR9, 26300 nM.

With `COc1ccc(-c2[nH]c3ccc(-c4nnc(C(=O)N5CCCN(C)CC5)o4)cc3c2C(C)C)cc1OC` [Example 93, (5-(2-(3,4-dimethoxyphenyl)-3-isopropyl-1H-indol-5-yl)-1,3,4-oxadiazol-2-yl)(4-methyl-1,4-diazepan-1-yl)methanone], the IC50 at human TLR7 came to 86 nM; at human TLR8 it was 15 nM; against human TLR9, 2020 nM.

Consider `COc1ccc(-c2[nH]c3ccc(-c4nnc(C(=O)N(C)CCc5ccccn5)o4)cc3c2C(C)C)cc1OC` [Example 94, 5-(2-(3,4-dimethoxyphenyl)-3-isopropyl-1H-indol-5-yl)-N-methyl-N-(2-(pyridin-2-yl)ethyl)-1,3,4-oxadiazole-2-carboxamide], for which the IC50 on human TLR7 turned out to be 181 nM; against human TLR8, 222 nM; on human TLR9, 13100 nM.

On to `COc1ccc(-c2[nH]c3ccc(-c4nnc(C(=O)N5CCC(N6CCCC6)CC5)o4)cc3c2C(C)C)cc1OC` [Example 95, (5-(2-(3,4-dimethoxyphenyl)-3-isopropyl-1H-indol-5-yl)-1,3,4-oxadiazol-2-yl)(4-(pyrrolidin-1-yl)piperidin-1-yl)methanone], for which the IC50 against human TLR7 was determined as 99 nM; against human TLR8 it was 21 nM; on human TLR9, 1400 nM.

As to `COc1ccc(-c2[nH]c3ccc(-c4nnc(C(=O)N(C)CCCN(C)C)o4)cc3c2C(C)C)cc1OC` [Example 96, 5-(2-(3,4-dimethoxyphenyl)-3-isopropyl-1H-indol-5-yl)-N-(3-(dimethylamino)propyl)-N-methyl-1,3,4-oxadiazole-2-carboxamide], the IC50 against human TLR7 is 49 nM; against human TLR8, 4.6 nM; at human TLR9, 1220 nM.

`COc1ccc(-c2[nH]c3ccc(-c4nnc(C(=O)N5CCN(c6cnccn6)CC5)o4)cc3c2C(C)C)cc1OC` [Example 97, (5-(2-(3,4-dimethoxyphenyl)-3-isopropyl-1H-indol-5-yl)-1,3,4-oxadiazol-2-yl)(4-(pyrazin-2-yl)piperazin-1-yl)methanone]: the values for the IC50 against human TLR7, at human TLR8 and at human TLR9 were 936 nM, 239 nM and over 50000 nM, respectively.

On to `COc1ccc(-c2[nH]c3ccc(-c4nnc(C(=O)N5CC[C@H](N(C)C)C5)o4)cc3c2C(C)C)cc1OC` [Example 98, (S)-(5-(2-(3,4-dimethoxyphenyl)-3-isopropyl-1H-indol-5-yl)-1,3,4-oxadiazol-2-yl)(3-(dimethylamino)pyrrolidin-1-yl)methanone], for which the IC50 against human TLR7 came to 68 nM; against human TLR8, 17 nM; on human TLR9 it was 2660 nM.

`COc1ccc(-c2[nH]c3ccc(-c4nnc(C(=O)N5CCC(N6CCOCC6)C5)o4)cc3c2C(C)C)cc1OC` (stereo not drawn) [Example 99, (5-(2-(3,4-dimethoxyphenyl)-3-isopropyl-1H-indol-5-yl)-1,3,4-oxadiazol-2-yl)(3-morpholinopyrrolidin-1-yl)methanone]: the IC50 worked out at 565 nM at human TLR7, 86 nM at human TLR8 and 16300 nM against human TLR9.
